In patent publication US9884806B2, “Cyclic vinylogous amides as bromodomain inhibitors” (ICAHN SCHOOL OF MEDICINE AT MOUNT SINAI, priority 2013, dated 2018):

Assays:
[1] = target: T1, first bromodomain (BrD1) of human BRD4 (Homo sapiens, UniProt O60885); assay: Fluorescence anisotropy binding assay (competition with FITC-labeled MS417 probe); settings: FITC-MS417 probe 80 nM, PBS pH 7.4, 1 hour, 25° C., read-out: BRD4_1 IC50
T1 construct: the first bromodomain (BrD1) of human BRD4; poly-His (cleaved yes); made in house
How it was run: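 Competitive fluorescence anisotropy in PBS pH 7.4: 80 nM FITC-MS417 probe, 0.25 to 1 μM tag-cleaved BrD1, titrated unlabeled ligand, 1 hour at 25° C. IC50 values were fitted and converted to Ki using a corrected Cheng-Prusoff equation assuming one-site competition.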

[2] = target: T2, BRD4_2 (Homo sapiens, UniProt O60885); assay: Fluorescence anisotropy binding assay (competition with FITC-labeled MS417 probe), BRD4_2; settings: FITC-MS417 probe 80 nM, PBS pH 7.4, 1 hour, 25° C.
T2 construct: contains two tandem bromodomains (BrD1 and BrD2)

Structure (SMILES)	IC50 [1]	melting point	IC50 [2]
CC1=C(Nc2ccccn2)CCC1=O [Example 01-28, 2-methyl-3-(pyridin-2-ylamino)cyclopent-2-enone]	> 10 µM	163 to 165 °C	> 10 µM
CC1=C(Nc2cc(NS(=O)(=O)C3CCCCC3)ccc2Cl)CCCC1=O [Example 05-67, N-(4-chloro-3-((2-methyl-3-oxocyclohex-1-en-1-yl)amino)phenyl)-cyclohexanesulfonamide]	< 1 µM	215 to 217 °C	< 1 µM
COC(=O)c1ccc(Cl)cc1NC1=C(C)C(=O)CC1 [Example 01-24, methyl 4-chloro-2-((2-methyl-3-oxocyclopent-1-en-1-yl)amino)benzoate]	1 to 10 µM	167 to 170 °C	> 10 µM
CC1=C(Nc2ccc3cccnc3c2)CCCC1=O [Example 01-57, 2-methyl-3-[(quinolin-7-yl)amino]cyclohex-2-en-1-one]	1 to 10 µM	133 to 135 °C	1 to 10 µM
CC1=C(Nc2ccc3cc(C(=O)O)ccc3c2Cl)CCCC1=O [Example 01-53, 5-chloro-6-[(2-methyl-3-oxocyclohex-1-en-1-yl)amino]naphthalene-2-carboxylic acid]	< 1 µM	272 to 275 °C (dec.)	1 to 10 µM
COc1ccccc1S(=O)(=O)Nc1ccc(Cl)c(NC2=C(C)C(=O)CC2)c1 [Example 05-60, N-(4-chloro-3-((2-methyl-3-oxocyclopent-1-en-1-yl)amino)phenyl)-2-methoxybenzenesulfonamide]	< 1 µM	198 to 200 °C	< 1 µM
CC1=C(Nc2ccc3[nH]c(C(=O)O)cc3c2)CCCC1=O [Example 01-64]	< 1 µM	310 to 315 °C	1 to 10 µM
CC1=C(Nc2ccc(C(=O)O)cc2C)CCC1=O [Example 01-14, 3-methyl-4-((2-methyl-3-oxocyclopent-1-en-1-yl)amino)benzoic acid]	1 to 10 µM	233 to 236 °C	1 to 10 µM
CC1=C(Nc2cc(Nc3ccccc3C)ccc2Cl)CCCC1=O [Example 05-81, 3-((2-chloro-5-(o-tolylamino)phenyl)amino)-2-methylcyclohex-2-enone]	< 1 µM	165 to 168 °C	1 to 10 µM
CC1=C(Nc2ccc3ccncc3c2)CCCC1=O [Example 01-56, 3-[(isoquinolin-7-yl)amino]-2-methylcyclohex-2-en-1-one]	1 to 10 µM	145 to 147 °C	> 10 µM
CC(=O)Nc1ccc(Cl)c(NC2=C(C)C(=O)CC2)c1 [Example 01-42, N-(4-chloro-3-((2-methyl-3-oxocyclopent-1-en-1-yl)amino)phenyl)-acetamide]	< 1 µM	265 to 268 °C	1 to 10 µM
CC1=C(Nc2cccc(N)c2Cl)CCC1=O [Example 02-13, 3-((3-amino-2-chlorophenyl)amino)-2-methylcyclopent-2-enone]	1 to 10 µM	223 to 225 °C	1 to 10 µM
CC1=C(Nc2cc(NS(=O)(=O)N3CCCCC3)ccc2Cl)CCC1=O [Example 05-61, N-(4-chloro-3-((2-methyl-3-oxocyclopent-1-en-1-yl)amino)phenyl)-piperidine-1-sulfonamide]	< 1 µM	78 to 80 °C	< 1 µM
CC1=C(Nc2ccc3ncncc3c2)CCCC1=O [Example 01-61, 2-methyl-3-[(quinazolin-6-yl)amino]cyclohex-2-en-1-one]	> 10 µM	215 to 216 °C	> 10 µM
CC1=C(Nc2ccc3nccnc3c2)CCCC1=O [Example 01-60, 2-methyl-3-[(quinoxalin-6-yl)amino]cyclohex-2-en-1-one]	1 to 10 µM	110 to 112 °C	1 to 10 µM
CC1=C(Nc2cccc(NC(=O)c3cccc4ccccc34)c2Cl)CCCC1=O [Example 05-52, N-(2-chloro-3-((2-methyl-3-oxocyclohex-1-en-1-yl)amino)phenyl)-1-naphthamide]	< 1 µM	178 to 180 °C	1 to 10 µM
CC1=C(Nc2ccc(C(=O)O)c(C)c2)CCC1=O [Example 01-16, 2-methyl-4-((2-methyl-3-oxocyclopent-1-en-1-yl)amino)benzoic acid]	> 10 µM	213 to 216 °C	> 10 µM
COc1ccc(NC(=O)c2ccc(NC3=C(C)C(=O)CC3)c(I)c2)cc1 [Example 04-104, 3-iodo-N-(4-methoxyphenyl)-4-((2-methyl-3-oxocyclopent-1-en-1-yl)amino)benzamide]	< 1 µM	222 to 224 °C	1 to 10 µM
CC1=C(Nc2cc3ccccc3cn2)CCCC1=O [Example 01-58, 3-[(isoquinolin-3-yl)amino]-2-methylcyclohex-2-en-1-one]	1 to 10 µM	205 to 208 °C	1 to 10 µM
CC1=C(Nc2cc(NS(=O)(=O)c3ccccc3C#N)ccc2Cl)CCC1=O [Example 05-59, N-(4-chloro-3-((2-methyl-3-oxocyclopent-1-en-1-yl)amino)phenyl)-2-cyanobenzenesulfonamide]	< 1 µM	235 to 238 °C	< 1 µM
CC1=C(Nc2ccc3cc[nH]c3c2)CCCC1=O [Example 01-62, 3-[(1H-indol-6-yl)amino]-2-methylcyclohex-2-en-1-one]	< 1 µM	227 to 230 °C	1 to 10 µM
CC1=C(Nc2cc(NC(=O)C3CCCCC3)ccc2Cl)CCCC1=O [Example 05-45, N-(4-chloro-3-((2-methyl-3-oxocyclohex-1-en-1-yl)amino)phenyl)-cyclohexanecarboxamide]	< 1 µM	192 to 195 °C	1 to 10 µM
CC1=C(Nc2ncccc2Cl)CCCC1=O [Example 01-49, 3-[(3-chloropyridin-2-yl)amino]-2-methylcyclohex-2-en-1-one]	1 to 10 µM	113 to 115 °C	> 10 µM
CC1=C(Nc2cc(NC(=O)c3ccccc3C)ccc2Cl)CCC1=O [Example 05-38, N-(4-chloro-3-((2-methyl-3-oxocyclopent-1-en-1-yl)amino)phenyl)-2-methylbenzamide]	< 1 µM	230 to 232 °C	< 1 µM
COc1ccc(C(=O)Nc2ccc(Cl)c(NC3=C(C)C(=O)CCC3)c2)cc1 [Example 05-43, N-(4-chloro-3-((2-methyl-3-oxocyclohex-1-en-1-yl)amino)phenyl)-4-methoxybenzamide]	> 10 µM	190 to 195 °C	> 10 µM
COC(=O)c1ccc(NC2=C(C)C(=O)CC2)c(I)c1 [Example 01-43, methyl 3-iodo-4-((2-methyl-3-oxocyclopent-1-en-1-yl)amino)benzoate]	1 to 10 µM	178 to 180 °C	1 to 10 µM
CC1=C(Nc2ccc(C(N)=O)cc2)CCCC1=O [Example 01-35, 4((2-methyl-3-oxocyclohex-1-en-1-yl)amino)benzamide]	1 to 10 µM	221 to 223 °C	1 to 10 µM
